The source of these data is patent US7105515B2, “Derivatives of sulphonamides, their preparation and use as medicaments” (Laboratories Del Dr. Esteve, S.A., priority 2001, dated 2006).

Structures can show the parent of a compound that is named as a salt.

For the compound `CCN(CC)CCc1c[nH]c2ccc(NS(=O)(=O)c3cccc4ccccc34)cc12` (as salt: HCl) [Example 3, Hydrochloride N-[3-(2-diethylaminoethyl)-1H-indol-5-yl]naphthalene-1-sulphonamide], the melting point – broadly, the temperature of the solid-liquid transition – lay in the range of 255 to 257 °C.

Turning to `CN1CCC(c2c[nH]c3ccc(NS(=O)(=O)c4cccc5ccccc45)cc23)CC1` (as salt: HCl) [Example 13, N-[3-(1-methylpiperidin-4-yl)-1H-indol-5-yl]naphthalene-1-sulphonamide hydrochloride], the melting point is 212 °C (dec.). The same measure for `CCN(CC)CCc1c[nH]c2ccc(NS(=O)(=O)c3sc4ccc(Cl)cc4c3C)cc12` [Example 1, N-[3-(2-diethylaminoethyl)-1H-indol-5-yl]-5-chloro-3-methylbenzo[b]thiophene-2-sulphonamide]: 170 to 173 °C; for `CCN(CC)CCc1c[nH]c2ccc(NS(=O)(=O)c3cc(Cl)cc(Cl)c3)cc12` [Example 4, N-[3-(2-diethylaminoethyl)-1H-indol-5-yl]-3,5-dichlorobenzenesulphonamide]: 168 to 170 °C. With `CCN(CC)CCc1c[nH]c2ccc(NS(=O)(=O)c3ccc(-c4ccccc4)cc3)cc12` [Example 5, N-[3-(2-diethylaminoethyl)-1H-indol-5-yl]-4-phenylbenzenesulphonamide], the melting point lay in the range of 161 to 163 °C. To `CCN(CC)CCc1c[nH]c2ccc(NS(=O)(=O)c3ccc(Cl)s3)cc12` [Example 6, N-[3-(2-diethylaminoethyl)-1H-indol-5-yl]-5-chlorothiophene-2-sulphonamide] belongs 180 to 181 °C; to `Cc1c(S(=O)(=O)Nc2ccc3[nH]cc(CCN(C)C)c3c2)sc2ccc(Cl)cc12` [Example 7, N-[3-(2-dimethylaminoethyl)-1H-indol-5-yl]-5-chloro-3-methylbenzo[b]thiophene-2-sulphonamide], 226 to 227 °C. `CN(C)CCc1c[nH]c2ccc(NS(=O)(=O)c3cccc4ccccc34)cc12` [Example 8, N-[3-(2-dimethylaminoethyl)-1H-indol-5-yl]naphthalene-1-sulphonamide] gave a melting point of 203 to 205 °C. On to `CN1CCC(c2c[nH]c3ccc(NS(=O)(=O)c4ccc(Cl)s4)cc23)CC1` [Example 14, N-[3-(1-methylpiperidin-4-yl)-1H-indol-5-yl]-5-chlorothiophene-2-sulphonamide], for which the melting point is 284 °C (dec.). `CN1CCC(c2c[nH]c3ccc(NS(=O)(=O)c4ccc(-c5ccccc5)cc4)cc23)CC1` [Example 15, N-[3-(1-methylpiperidin-4-yl)-1H-indol-5-yl]-4-phenylbenzenesulphonamide] came in with a melting point of 247 to 248 °C.

With `CN1CCC(c2c[nH]c3ccc(NS(=O)(=O)c4cccc5cccnc45)cc23)CC1` [Example 16, N-[3-(1-methylpiperidin-4-yl)-1H-indol-5-yl]quinoline-8-sulphonamide], the melting point was 280 °C (dec.). As to `CCN(CC)CCc1c[nH]c2ccc(NS(=O)(=O)c3ccc4ccccc4c3)cc12` [Example 17, N-[3-(2-diethylaminoethyl)-1H-indol-5-yl]naphthalene-2-sulphonamide], the melting point is 172 to 173 °C.
